Data on 18 compounds can be found in patent US7772425B2, “Vitamin D receptor modulators” (Eli Lilly and Company, priority 2002, dated 2010).

For data set [1], the system named is rat osteocalcin promoter. As to the kind of experiment: OCN (osteocalcin) promoter assay in RG-15 (ROS 17/2.8) cells. The conditions noted are these: 48 hr treatment, luciferase. It is filed as cell-based. The protocol:
3. The OCN (Osteocalcin) Promoter Assay
The OCN Promoter Assay is an indicator and marker for osteoporosis. […] Preferred assay results are less than 50 nM.
(3) Materials and Method for The OCN Promoter Assay:
The activation of osteocalcin by VDR ligands was evaluated in a rat osteoblast-like cell line RG-15 (ROS 17/2.8) stably expressing rat osteocalcin promoter fused with luciferase reporter gene. […] Confluent RG-15 cells maintained in DMEM/F-12 medium (3:1) containing 5% FBS, 300 μg/ml G418 and at 37° C. under 5% CO2/95% air atmosphere were trypsinized (0.25% trypsin) and plated into white opaque 96-well cell culture plates (25000 cells/well). After 24 hr, cells (in DMEM/F-12 medium+2% FBS) were treated with various concentrations of compounds, dissolved in DMSO. The final DMSO concentration remained at 0.01% (v/v). After 48 hr treatment, the medium was removed, cells were lysed with 50 μl of lysis buffer (From Luciferase reporter assay system, Roche Diagnostics, Indianapolis, Ind.) and assayed for luciferase activity using the Luciferase Reporter Gene Assay kit from Boehringer Mannheim as per manufacturer's specifications.

In data set [2] the test system is KERtr cells (Human skin keratinocyte). As to the kind of experiment: Keratinocyte proliferation assay. It is filed as cell-based. The conditions noted are these: BrdU incorporation, read-out: Kera. Prolif. IC50. The protocol:
5. The Keratinocyte Proliferation Assay
This Assay is indicative for the treatment of psoriasis.
(5) The Keratinocyte Proliferation Assay:
KERtr cells (Human skin keratinocyte transformed with a retrovirus vector, obtained from ATCC) were plated in 96-well flat-bottomed plates (3000 cells/well) in 100 μl keratinocyte serum free medium supplemented with bovine pituitary extract in the absence of EGF (Life Technologies, Rockville, Md.) and incubated at 37° C. for two days. The cells were treated with various concentrations of VDR ligands (ten-fold serial dilution from 10,000 nM to 0.1 nM in triplicate), dissolved in 100 μl keratinocyte serum free medium supplemented with bovine pituitary extract in the absence of EGF and incubated at 37° C. for 72 hr. BrdU (5-bromo-2′-deoxyuridine) incorporation was analyzed as a measure of DNA replication (Cell proliferation ELISA kit, Roche Diagnostics, Indianapolis, Ind.) and absorbance was measured at 405 nm. Potency values (IC50) values were determined as the concentration (nM) of compound that elicited a half-maximal response.

The subject of data set [3] is female DBF mice. As to the kind of experiment: Mouse hypercalcemia assay. It is filed as in vivo. The conditions noted are these: orally via gavage for 6 days; serum ionized calcium 6 hours after last dosing. The source says:
4. The Mouse Hypercalcemia Assay
(4) Materials and Method for The Mouse Hypercalcemia Assay: […]

The mark [4] stands for this setting: Homo sapiens, Keratinocyte, 72 h.

Each structure is given as a SMILES string. Values joined by “and” are separate entries in the source; they are usually repeats but may differ in a detail not shown here. Identical values can stand only once. Like-named read-outs stand apart in the source and are kept apart here.

Broadly, the EC50 is the concentration at which the effect is half-maximal. The IC50 is the point on the concentration scale where inhibition reaches its midpoint. For `CCC(CC)(c1ccc(OC(C)C(O)C(C)(C)C)c(C)c1)c1ccc(C(=O)O)c(C)c1` (racemic) [Ex. 28, 4-{1-Ethyl-1-[4-(2-hydroxy-1,3,3-trimethyl-butoxy)-3-methyl-phenyl]-propyl}-2-methyl-benzoic acid], the EC50 in data set [1] amounted to 0.084 µM; in data set [1] (Rattus norvegicus, 48 h), 0.106 µM. In addition, the IC50 in data set [2] (setting [4]) came to 0.24 µM.

As to `CCC(CC)(c1ccc(C(=O)O)cc1)c1ccc(OCC(O)C(C)(C)C)c(Cl)c1` (racemic) [Ex. 35, 3′-[3-chloro-4-(2-hydroxy-3,3-dimethylbutoxy)phenyl]-3′-[4-carboxyphenyl]pentane], the EC50 in data set [1] (Rattus norvegicus, 48 h) turned out to be 0.027 µM. The IC50 in data set [2] (setting [4]) came out at 0.04 µM.

With `CCC(CC)(c1ccc(OCC(O)C(C)(C)C)c(C)c1)c1ccc(C(=O)O)c(Cl)c1` (racemic) [Ex. 39, 3′-[3-methyl-4-(2-hydroxy-3,3-dimethylbutoxy)phenyl]-3′-(3-chloro-4-carboxyphenyl)pentane], the EC50 was 0.061 µM in data set [1] and 0.074 µM in data set [1] (Rattus norvegicus, 48 h). The 50% inhibitory concentration (IC50) in data set [2] (setting [4]) amounted to 0.508 µM.

Turning to `CCC(CC)(c1ccc(OC(C)C(O)C(C)(C)C)c(C)c1)c1ccc(C(=O)OC)c(C)c1` (single isomer, unassigned) [Ex. 10Da, 3′-[4-(2-hydroxy-1,3,3-trimethylbutoxy)-3-methylphenyl]-3′-[4-methoxycarbonyl-3-methylphenyl]pentane], the IC50 in data set [2] (setting [4]) was 1 µM.

Turning to `CCC(CC)(c1ccc(OC(C)C(O)C(C)(C)C)c(C)c1)c1ccc(C(=O)OC)c(C)c1` (single isomer, unassigned) [Ex. 10Db, 3′-[4-(2-hydroxy-1,3,3-trimethylbutoxy)-3-methylphenyl]-3′-[4-methoxycarbonyl-3-methylphenyl]pentane], the EC50 in data set [1] turned out to be 0.015 µM. The 50% inhibitory concentration (IC50) in data set [2] (72 hr) stood at 1 µM.

Take `CCC(CC)(c1ccc(OCC(O)C(C)(C)C)c(C)c1)c1ccc(C(=O)NCCS(C)(=O)=O)c(C)c1` (single isomer, unassigned) [Ex. 15A, 4-{1-ethyl-1-[4-(2-hydroxy-3,3-dimethylbutoxy)-3-methylphenyl]propyl}-N-(2-methanesulfonylethyl)-2-methylbenzamide]: the concentration giving a half-maximal response (EC50) in data set [1] is 0.035 µM and 0.043 µM. In addition, the “Mouse Hypercal” value in data set [3] was 1500 µg/kg/day. Also, the IC50 in data set [2] (setting [4]) is 0.117 µM.

On to `CCC(CC)(c1ccc(C(=O)O)cc1)c1ccc(OCC(O)C(C)(C)C)c(Cl)c1` (single isomer, unassigned) [Ex. 36, 3′-[3-chloro-4-(2-hydroxy-3,3-dimethylbutoxy)phenyl]-3′-[4-carboxyphenyl]pentane], for which, in data set [3], the “Mouse Hypercal” value was above 300 µg/kg/day. Besides, in data set [2] (72 hr), the IC50 came out at 0.139 µM.

On to `CCC(CC)(c1ccc(OCC(O)C(C)(C)C)c(Cl)c1)c1ccc(C(=O)O)c(Cl)c1` (single isomer, unassigned) [Ex. 42, 3′-[3-chloro-4-(2-hydroxy-3,3-dimethyl-butoxy)phenyl]-3′-(3-chloro-4-carboxyphenyl)pentane], for which the half-inhibitory concentration (IC50) in data set [2] (setting [4]) was 0.05 µM.

Turning to `CCC(CC)(c1ccc(OC(C)C(O)C(C)(C)C)c(C)c1)c1ccc(C(=O)N(C)CC(=O)O)c(C)c1` (single isomer, unassigned) [Ex. 53, [(4-{1-Ethyl-1-[4-(2-hydroxy-1,3,3-trimethyl-butoxy)-3-methyl-phenyl]-propyl}-2-methyl-benzoyl)-methyl-amino]-acetic acid], the “Mouse Hypercal” value in data set [3] was above 3000 µg/kg/day. The half-maximal inhibitory concentration (IC50) in data set [2] (72 hr) was determined as 0.224 µM.

With `CCC(CC)(c1ccc(OCC(=O)C(C)(C)C)c(C)c1)c1ccc(OCC(=O)C(C)(C)C)c(C)c1` [DD, reference compound], in data set [1] (Rattus norvegicus, 48 h), the EC50 came out at 0.0311 µM. Moreover, the “Mouse Hypercal” value in data set [3] was 1000 µg/kg/day. Moreover, the IC50 in data set [2] (setting [4]) worked out at 1.06 µM.

Take `CCC(CC)(c1ccc(OCC(O)C(C)(C)C)c(C)c1)c1ccc(C(=O)NS(C)(=O)=O)c(C)c1` (stereo not drawn) [Ex. 5]: the EC50 in data set [1] (Rattus norvegicus, 48 h) stood at 0.042 µM. In data set [3], the “Mouse Hypercal” value is 100 µg/kg/day. In data set [2] (setting [4]), the IC50 was 0.375 µM.

Turning to `CCC(CC)(c1ccc(CCC(=O)N(C)C)c(C)c1)c1ccc(OCC(=O)C(C)(C)C)c(C)c1` [Ex. 7, 3′-[4-(2-oxo-3,3-dimethylbutoxy)-3-methylphenyl]-3′-[4-(2-dimethylcarbamoylethyl)-3-methylphenyl]pentane], in data set [1] (Rattus norvegicus, 48 h), the EC50 is 0.004 µM. The IC50 in data set [2] (setting [4]) was found to be 0.018 µM.

As to `CCC(CC)(c1ccc(CCC(=O)N(C)C)c(C)c1)c1ccc(OCC(O)C(C)(C)C)c(C)c1` (stereo not drawn) [Ex. 8, 3′-[4-(2-hydroxy-3,3-dimethylbutoxy)-3-methylphenyl]-3′-[4-(2-dimethylcarbamoylethyl)-3-methylphenyl]pentane], in data set [3], the “Mouse Hypercal” value is 100 µg/kg/day. For the same compound, in data set [2] (setting [4]), the IC50 was found to be 0.33 µM.

As for `CCC(CC)(c1ccc(/C=C/C(=O)N(C)C)c(C)c1)c1ccc(OCC(O)C(C)(C)C)c(C)c1` (stereo not drawn) [Ex. 9, 3′-[4-(2-hydroxy-3,3-dimethylbutoxy)-3-methylphenyl]-3′-[4-(2-dimethylcarbamoyl-t-ethylidene)-3-methylphenyl]pentane], the half-maximal effective concentration (EC50) worked out at 0.006 µM in data set [1] and 0.007 µM in data set [1] (Rattus norvegicus, 48 h). The IC50 in data set [2] (setting [4]) was 0.985 µM.

Take `CCC(CC)(c1ccc(OCC(=O)C(C)(C)C)c(C)c1)c1ccc(C(=O)O)c(C)c1` [Ex. 17, 4-{1-[4-(3,3-dimethyl-2-oxobutoxy)-3-methylphenyl]-1-ethylpropyl}-2-methylbenzoic acid]: the “Mouse Hypercal” value in data set [3] was above 3000 µg/kg/day. Besides, the IC50 in data set [2] (setting [4]) was determined as 1 µM.

As to `CCC(CC)(c1ccc(OC(C)C(O)C(C)(C)C)c(C)c1)c1ccc(C(=O)N[C@@H](C)C(=O)O)c(C)c1` (stereo partly drawn) [Ex. 47, (L)-2-(4-{1-Ethyl-1-[4-(2-hydroxy-1,3,3-trimethyl-butoxy)-3-methyl-phenyl]-propyl}-2-methyl-benzoylamino)-propionic acid], in data set [3], the “Mouse Hypercal” value is 3000 µg/kg/day. For the same compound, the IC50 in data set [2] (setting [4]) is 1 µM.

In the case of `CCC(CC)(c1ccc(OC(C)C(O)C(C)(C)C)c(C)c1)c1ccc(C(=O)N[C@H](C)C(=O)O)c(C)c1` (stereo partly drawn) [Ex. 48, (D)-2-(4-{1-ethyl-1-[4-(2-hydroxy-1,3,3-trimethyl-butoxy)-3-methyl-phenyl]-propyl}-2-methyl-benzoylamino)-propionic acid], the “Mouse Hypercal” value in data set [3] is below 1000 µg/kg/day. Also, the IC50 in data set [2] (72 hr) was found to be 1 µM.

`CCC(CC)(c1ccc(OC(C)C(O)C(C)(C)C)c(C)c1)c1ccc(C(=O)N[C@@H](C)C(=O)O)c(C)c1` (stereo partly drawn) [Ex. 49, (L)-2-(4-{1-Ethyl-1-[4-(2-hydroxy-1,3,3-trimethyl-butoxy)-3-methyl-phenyl]-propyl}-2-methyl-benzoylamino)-propionic acid]: the IC50 in data set [2] (72 hr) is 1 µM.
